Tests used:
[1] = system: MRC-5 human lung fibroblast cell line; assay: MTT test of cell viability, 72 h treatment; assay type: cell-based
Protocol: (§1) The MTT test was used to evaluate the effect of the compounds on cell viability. The test relies on the reduction of tetrazolium salt (MTT) to formazan, which is catalyzed by the mitochondrial enzyme succinate dehydrogenase. The activity of succinate dehydrogenase, which is indicative of mitochondrial respiration, is taken as an indirect measure of the metabolic activity of the cell, and thus its viability. The MTT-formazan produced is a purple-colored product, whose absorbance is measured at a wavelength of 570 nm. • a) To determine the inhibition of cell growth by SC, different cell lines were exposed to increasing concentrations of SC (5, 10, 25, 50, and 100 μM). The cells were seeded in 96-well microtiter plates at a density of 2,000 cells per well for NCI-H460, NCI-H460/R, DLD1 and DLD1-TxR, and 4,000 cells per well for MRC-5, U87, U87-TxR, and U251 in 100 μL of the appropriate medium. Control cells that received no treatment were also seeded at the same time. After 24 h for adaptation, the cells were treated with various concentrations of SC. After 72 h of treatment, 0.2 mg/ml MTT was added to each well in the appropriate cell culture medium. After 4 h of incubation at 37° C. with 5% CO2, the medium was removed, and 100 μL of DMSO were added to each well, to dissolve the formazan. The absorbance of the samples was measured at 570 nm using a Multiskan Sky Microplate spectrophotometer (ThermoFisher Scientific, USA). The results were analyzed using GraphPad Prism 8.0.2. software, and the IC50 values were determined by non-linear regression. • b) To test the interaction between SC and DOX in terms of cytotoxicity in different cell lines, cells were seeded in 96-well microtiter plates at a density of 2,000 cells per well for NCI-H460, NCI-H460/R, DLD1 and DLD1-TxR, and 4,000 cells per well for MRC-5, U87, U87-TxR, and U251 in 100 μl of the appropriate medium. SC (10 and 20 μM) was combined with increasing concentrations of DOX (20, 50, 100, 200, and 500 nM). The cells were treated with the simultaneous combinations for 72 h. After this period, 0.2 mg/ml MTT was added to each well, followed by 4 hours of incubation at 37° C. with 5% CO2. The medium was then removed, and DMSO was added to each well to dissolve the formazan.
(§2) The absorbance of the samples was measured at 570 nm using a Multiskan Sky Microplate spectrophotometer.
(§3) The analysis was carried out using GraphPad Prism software version 8.0.2 to determine the nature of the interaction, namely synergistic, antagonistic, or additive, between compounds. This was done using the computer software CalcuSyn, which is based on the combination index method. The method takes into account the concentration of compounds, the individual effect of each compound, as well as the effect of two compounds in combination. The values of the combination indices (CI) describe the nature of the interaction: Cl<0.9 indicates synergism, Cl>1.1 indicates antagonism, and Cl=0.9-1.1 indicates an additive effect. • c) To compare the resistance and selectivity profiles among SC, DOX, CON1, and CON2, human glioblastoma cell lines U87, U87-TxR, and MRC-5 were seeded at a density of 4,000 cells per well in 100 μL of the appropriate medium. In contrast, NCI-H460, NCI-H460/R, and MRC-5 were seeded at a density of 2,000 cells per well in 100 μL of the proper medium. The effect of SC derivatives LIG1 and LIG2 was also examined. The range of concentrations differed among the cell lines and the compounds. For LIG1 and LIG2, the range of concentrations for all cell lines was 50, 100, 200, 300, and 400 μM, while the same range was used for the MRC-5 in the case of SC, CON1, and CON2. DOX concentrations ranged 0.1, 0.25, 0.5, 1, and 2.5 μM for U87 and NCI-H460, and 0.25, 0.5, 1, 2.5, and 5 μM for U87-TxR, NCI-H460/R, and MRC-5. Five concentrations used for SC, CON1, and CON2 treatments varied in the range 1, 2.5, 5, 10, 25, 50, and 100 μM. The treatment lasted 72 h. […]

[2] = system: U87-TxR resistant human glioblastoma cell line; assay: MTT test of cell viability, 72 h treatment; assay type: cell-based; settings: for IC50: MTT, 72 h, MDR line; for Relative Resistance: ratio IC50 U87-TxR / IC50 U87
Protocol: as §1, §2, §3

[3] = system: NCI-H460/R resistant human non-small cell lung carcinoma cell line; assay: MTT test of cell viability, 72 h treatment; assay type: cell-based; settings: for IC50: MTT, 72 h, MDR line; for Relative Resistance: ratio IC50 NCI-H460/R / IC50 NCI-H460
Protocol: as §1, §2, §3

[4] = system: U87 human glioblastoma cell line; assay: MTT test of cell viability, 72 h treatment; assay type: cell-based; settings: for IC50: MTT, 72 h; for Selectivity Index: ratio IC50 MRC-5 (4,000 cells per well) / IC50 U87
Protocol: as §1
as §3, with “h. After the treatment period, 0.2 mg/ml MTT in the appropriate cell culture medium was added to each well.” for “h.”

[5] = system: NCI-H460 human non-small cell lung carcinoma cell line; assay: MTT test of cell viability, 72 h treatment; assay type: cell-based; settings: for IC50: MTT, 72 h; for Selectivity Index: ratio IC50 MRC-5 (2,000 cells per well) / IC50 NCI-H460
Protocol: as §1
as §3, with “h. After the treatment period, 0.2 mg/ml MTT in the appropriate cell culture medium was added to each well.” for “h.”

[6] = Zetasizer measurement of size, polydispersity and zeta potential; assay type: physicochemical; settings: 25° C., diluted 100 times with ultrapure water, mean of three
Protocol: The Malvern Zetasizer Nano ZS (Malvern Instruments, United Kingdom) was used to analyze the physico-chemical stability characteristics of conjugates. The measurement range was from 0.6 nm up to […]. The mean size of conjugates, the polydispersity index (PDI) and zeta potential were measured. All measurements were taken at a temperature of 25° C. and each sample was diluted 100 times with ultrapure water. The measurements were repeated three times, and the results were presented as the mean value. PDI is a parameter used to define the size range of particles. The term “polydispersity” (or “dispersity” as recommended by IUPAC) describes the degree of non-uniformity of a size distribution of particles. Zeta potential represents the surface charge of nanoparticles and indicates their long-term stability.

[7] = Homo sapiens, MRC5, 72 h, 2,000 cells per well (non-small cell carcinoma experiments)
[8] = Homo sapiens, MRC5, 72 h, 4,000 cells per well (glioblastoma experiments)

| IC50 ([2]; Homo sapiens, U87-TxR) [µM] | IC50 ([3]; Homo sapiens, NCI-H460) [µM] | IC50 ([4]; Homo sapiens) [µM] | IC50 ([5]; Homo sapiens, NCI-H460) [µM] | Compound | IC50 [1, 7] [µM] | IC50 [1, 8] [µM] | Relative Resistance [2] | Relative Resistance [3] | Selectivity Index [4] | Selectivity Index [5] | Z-Average [6] [nm·days] | IC50 ([1]; 2,000 cells per well (non-small cell carcinoma experiments)) [µM] | IC50 ([1]; 4,000 cells per well (glioblastoma experiments)) [µM] | IC50 [2] [µM] | IC50 [3] [µM] | IC50 [4] [µM] | IC50 [5] [µM] |
| --- | --- | --- | --- | --- | --- | --- | --- | --- | --- | --- | --- | --- | --- | --- | --- | --- | --- |
| 61.7 | 55.2 | 74.4 | 41.7 | CC1(C)CCC[C@]2(C)[C@@H](CC[C@@](C)(O)/C=C/c3ccc(CNCCCNC(=O)CCC(=O)O)cc3)[C@](C)(O)CC[C@@H]12 [LIG1, 4-((3-((4-((R,E)-3-hydroxy-5-((1R,2R,4aS,8aS)-2-hydroxy-2,5,5,8a-tetramethyldecahydronaphthalen-1-yl)-3-methylpent-1-en-1-yl)benzyl)amino)propyl)amino)-4-oxobutanoic acid] | 393 | 236 | 0.8 | 1.3 | 3.2 | 9.4 | – | – | – | – | – | – | – |
| 273 | 110 | 345 | 99.6 | CC1(C)CCC[C@]2(C)[C@@H](CC[C@@](C)(O)/C=C/c3ccc(CNCCCCCCNC(=O)CCC(=O)O)cc3)[C@](C)(O)CC[C@@H]12 [LIG2, 4-((6-((4-((R,E)-3-hydroxy-5-((1R,2R,4aS,8aS)-2-hydroxy-2,5,5,8a-tetramethyldecahydronaphthalen-1-yl)-3-methylpent-1-en-1-yl)benzyl)amino)hexyl)amino)-4-oxobutanoic acid] | 610 | > 400 | 0.8 | 1.1 | >1.2 | 6.1 | – | – | – | – | – | – | – |
| – | – | – | – | N1-((2S,3S,4S,6R)-3-hydroxy-2-methyl-6-(((1S,3S)-3,5,12-trihydroxy-3-(2-hydroxyacetyl)-10-methoxy-6,11-dioxo-1,2,3,4,6,11-hexahydrotetracen-1-yl)oxy)tetrahydro-2H-pyran-4-yl)-N4-(6-((4-((R,E)-3-hydroxy-5-((1R,2R,4aS,8aS)-2-hydroxy-2,5,5,8a-tetramethyldecahydronaphthalen-1-yl)-3-methylpent-1-en-1-yl)benzyl)amino)hexyl) succinamide [CON2] | – | – | 4.2 | 3.3 | >64.5 | 5.2 | 180 ± 14.7 | 131 | > 400 | 26.2 | 83.3 | 6.2 | 25.1 |

Source: patent publication US20260174860A1, “HYBRID COMPOUNDS OF SCLAREOL AND DOXORUBICIN, THEIR SYNTHESIS AND APPLICATION” (INSTITUTE FOR BIOLOGICAL RESEARCH "SINISA STANKOVIC" - …, priority 2023, published 2026)
